In US10525105B2, “Peptide for repairing cartilage and treating osteoarthritis” (Guangzhou Link Health Pharma Co., Ltd., priority 2016, dated 2020):
Peptide text beside a SMILES is read from it.

Tests used:
[1] = system: mesenchymal stem cells; assay: Immunohistochemical detection of COL2A1 in mesenchymal stem cells; type: cell-based, rat; conditions: 1 μM
Protocol: (§1) The cells were re-suspended in a complete chondrogenic medium (purchased from Guangzhou Cyagen Biosicences Inc., Item No.: RASMX-90011) containing different concentrations of BM23 peptides (0.1 μM, 0.3 μM, and 1 μM), so that the concentration of BMSCs was 5.0×10^5 cells per ml. PBS was used as a negative control, and 1 μM human insulin growth factor (IGF-1, purchased from Beijing Yiqiao Shenzhou Biotechnology Co., Ltd.) was used as a positive control.
The treated BMSCs were incubated at 37° C. under 5% CO2 saturated humidity. The medium was changed every 2-3 days, and 0.5 mL of fresh complete chondrogenic medium was added to each tube.
Generally, samples can be collected after 28 days of continuous induction; and cartilage balls can be subjected to formalin fixation, paraffin embedding, sectioning and alcian blue staining.
Paraffin Embedding of Tissues:
The specimens were fixed with 4% paraformaldehyde for 24-36 hours.
The specimens were taken out and washed to remove the fixative, and a material with a suitable size (about 0.2 cm in thickness) was cut for embedding.
The specimens were respectively treated once with 70%, 80%, 90% and 95% ethanol, and 60 minutes are for each treatment. The specimens were treated twice with 100% ethanol, and 50 minutes are for each time.
The specimens were treated once with ½xylene-½ absolute ethanol for 15 minutes. […]

[2] = system: rat bone marrow mesenchymal stem cells (BMSCs); assay: Chondrogenic induction of BMSCs, quantitative PCR of COL2A1 and ACAN mRNA; type: cell-based; conditions: rat BMSCs in chondrogenic medium
Protocol: Three SD rats aged 8 weeks were sacrificed by a dislocation method and disinfected with 70% ethanol for 5 minutes. The abdominal wall layers of the three SD rats were then cut with scissors, an incision of each SD rat was pulled to a femur, and muscles on the femur were carefully separated.
A middle of the femur was cut off, and a bone marrow cavity was repeatedly washed by a low-sugar DMEM medium (containing 1 mL/L of heparin) sucked with a syringe to flush out bone marrow.
The bone marrow was repeatedly washed with the syringe, and prepared into a single cell suspension by successively passing through needle No. 7 and needle No. 4.
The single cell suspension was centrifuged (1500 r/min, 10 min), and a supernatant was discarded; DMEM-F12 complete medium containing 10% FBS was added, and then an inoculation was performed in a culture flask at a density of 10^7 cells/mL, and the culture flask was placed in an incubator having 5% CO2 at 37° C. for a culture.
The cells were purified by a differential adherent culture. The culture solution was changed 48 hours after the inoculation, and thereafter, the culture solution was changed every 3 days to remove non-adherent hematopoietic cells.
After the cells grew to 80%-90%, a passage was performed. The culture solution was removed, and the cells were washed with PBS to remove residual serum; and the PBS was removed.
A BMSCs digestive juice (containing 0.25% trypsin and 0.02% EDTA solution) was added for a slight shaking until the BMSCs digestive juice just covers the bottom of the culture flask; and a digestion time was about 5 minutes. Then, the passage was carried out.
The cells were transferred to a centrifuge tube, centrifuged at 1500 r/min for 10 minutes; a supernatant was removed; and a complete culture medium of mesenchymal stem cells was added for re-suspending the cells.
The BM23 peptide was dissolved in phosphate buffered saline (PBS).
as §1
The treated BMSCs were incubated at 37° C. under 5% CO2 saturated humidity. The medium was changed every 2-3 days, and 0.5 mL of fresh complete chondrogenic medium was added to each tube. […]
Quantitative PCR Detection […]
Quantitative PCR was performed using cDNA as a template and the following primers: • (1) rat COL2A1-F1: 5′ […] […]

[3] = in vivo; design: species or system New Zealand rabbits; conditions: New Zealand, rabbit, iv, 0.5 mg/kg
Protocol: LC/MSMS methodology was established, Finnigan TSQ Discovery Max LC/MS was equipped with Surveyor HPLC system. The detection limit was 1-1000 ng/ml, and the recovery rate was over 80%. Six New Zealand rabbits were randomly divided into two groups (three rabbits in each group). […] The blood concentration was measured by LC/MSMS method, 100 μl of blood plasma was taken, 500 μl of a mixed solvent containing IS 2000 ng/ml of acetonitrile and methanol solution at a ratio of 70:30 was added, shaken, and centrifuged at 12000 rpm for 10 minutes. 20 μl of supernatant was injected for LC/MSMS analysis. The main pharmacokinetic parameters were calculated by using 3P97 pharmacokinetic software.

[4] = system: chondrocytes; assay: Immunohistochemical detection of COL2A1 in chondrocytes; type: cell-based, New Zealand white rabbit; conditions: 1 μM, 5 days
Protocol: The articular cartilage of New Zealand white rabbit aged 2 months old was cut under sterile conditions, and cut into a size of 1 mm. The articular cartilage was digested at 37° C. according to the following procedure: (1) digested with 2 mg/ml hyaluronidase for 45 minutes; (2) digested with 2 mg/ml trypsin for 45 minutes; and (3) digested with 4 mg/ml type II collagenase for 3 hours, washed, and then centrifuged (1500 r/min) for 5 minutes; and the precipitate was cultured in a DMEM medium containing 15% fetal bovine serum. Immunohistochemical Detection of COL2A1 Chondrocytes were inoculated at 3.5×10^5 cells/ml in a 6-well culture plate with coverslips, and different concentrations of BM23 peptides were added; PBS was set as a negative control group, and IGF-1 was set as a positive control group. The 6-well culture plate was placed in a 5% CO2 saturated water-vapor carbon dioxide incubator for a culture at 37° C. for 5 days. Immunohistochemical staining was performed as in Embodiment 3.

[5] = system: knee articular cartilage defect; assay: Rabbit cartilage repair model; type: in vivo, New Zealand rabbits; conditions: for general observation score: 90 days after first administration, 0-4 point scale; for histopathological scores of articular cartilage: 90 days, ICRS pathological scoring, grade 0-6, six rabbits
Protocol: Animals: New Zealand rabbits, 2 months old, half male and half female
Construction of models: New Zealand rabbits were anesthetized with 6% pentobarbital sodium (0.7 mL/kg) via marginal ear veins. After anesthesia, a longitudinal incision having a length of about 3 cm was made on the medial side of the knee joint of the left hind leg; the skin, subcutaneous tissue and joint capsule were cut successively to maintain the integrity of the patellar ligament; and the patella was turned outward to expose the femoral condyle. When the knee joint flexes 90°, an articular cartilage defect with a diameter of 4.2 mm and a depth of 3 mm was drilled in the femur and the middle of lateral intercondylar articular surfaces corresponding to the patella by using a drill bit with a diameter of 4.2 mm (according to visible bleeding on subchondral bone). The defect was washed with normal saline without any other treatment. […] After the patella is reset, the muscle and skin incisions are sequentially sutured. After the operation, immediately, the animals were intramuscularly injected with penicillin sodium once a day for 3 consecutive days to prevent infection.
Administration: the New Zealand rabbits with knee articular cartilage defects were divided into four groups: negative control group, low-dose group (1 mg/rabbit), medium-dose group (3 mg/rabbit) and high-dose group (10 mg/rabbit), 12 rabbits in each group, half male and half female in each group. On the 6th day after constructing the models, each group of rabbits was administered intra-articularly. Namely, 1 mg/rabbit, 3 mg/rabbit and 10 mg/rabbit were administered to the test rabbits, respectively, and the administration volume was 0.2 ml.
Sacrifice and observation: at 90 days after the first administration, 6 rabbits (half male and half female) were selected from each group and sacrificed, and the repair situation of the knee articular cartilage in each rabbit was observed by dissection.
(1) General observation: during necropsy, the articular cavity was opened, the patella articular surface was exposed, and the repair of the filling edge of the defect, the flatness of the cartilage surface, the color of the new cartilage, etc., were observed.
Subsequently, scoring was performed according to the following criteria:
0 point: the articular surface is smooth and the color is normal;
1 point: the articular surface is rough, with small fissures and dark color;
2 points: the cartilage defect has reached the middle layer of cartilage;
3 points: the articular surface ulcer is formed, and the cartilage defect has reached the deep layer of cartilage; and
4 points: the cartilage is exfoliated, and subchondral bones are exposed.
(2) Histological pathological observation: observation was performed under light microscope, and scoring was performed according to the ICRS pathological scoring standard:
Grade 0: the cartilage surface is flat and the cartilage is intact;
Grade 1: the superficial fibers are formed in the cartilage surface and are uneven;
Grade 2: the cartilage surface is discontinuous, accompanied by cell proliferation; and metachromatic materials are increased or decreased in the II-III layers;
Grade 3: cartilage rhagadia has reached the III layer or erosion occurs;
Grade 4: the erosion of the cartilage is aggravated, and the articular cartilage is damaged;
Grade 5: the articular cartilage is exfoliated; and
Grade 6: the joint is deformed.
After the rabbits were sacrificed by anesthesia and exsanguination, the articular cartilage tissue was exfoliated and fixed with 10% neutral formalin, followed by dehydration, conventional paraffin embedding, sectioning, HE staining and mounting, and detection was performed by light microscopy.

[6] = system: chondrocytes; assay: Proliferation of chondrocytes by MTS assay; type: cell-based, New Zealand white rabbit; conditions: 5 days of treatment, OD 570 nm, BM23 peptide 0.1, 0.3, 1 μM, IGF-1 1 μM
Protocol: The articular cartilage of New Zealand white rabbit aged 2 months old was cut under sterile conditions, and cut into a size of 1 mm. The articular cartilage was digested at 37° C. according to the following procedure: (1) digested with 2 mg/ml hyaluronidase for 45 minutes; (2) digested with 2 mg/ml trypsin for 45 minutes; and (3) digested with 4 mg/ml type II collagenase for 3 hours, washed, and then centrifuged (1500 r/min) for 5 minutes; and the precipitate was cultured in a DMEM medium containing 15% fetal bovine serum. […] Detection of the Proliferation of Chondrocytes by MTS Assay Chondrocytes were inoculated in a 96-well plate at 2×10^4 cells/well, and different concentrations of BM23 peptides (0.1 μM, 0.3 μM, and 1 μM) were added; PBS was set as a negative control group, and IGF-1 (1 μM) was set as a positive control group. The 96-well plate was placed in a 5% CO2 saturated water-vapor carbon dioxide incubator for a culture at 37° C. for 5 days. 20 μl of MTS mixture was added to each well, and the culture was continued for 3-4 hours for coloration. Before testing, the culture plate was shaken for 10 seconds to uniformly mix colors. The optical density (OD) of each well was measured at a wavelength of 570 nm on an enzyme-linked immunometric meter.

[7] = high-dose group 10 mg/rabbit intra-articular
[8] = low-dose group 1 mg/rabbit intra-articular
[9] = medium-dose group 3 mg/rabbit intra-articular

half-life [3]	Compound	expression level of COL2A1 protein (immunohistochemical staining) vs PBS treatment group [1]	mRNA expression level of ACAN compared with PBS treatment ([2]; 0.1 μM)	mRNA expression level of COL2A1 compared with PBS treatment ([2]; 0.1 μM)	mRNA expression level of ACAN compared with PBS treatment ([2]; 0.3 μM)	mRNA expression level of ACAN compared with PBS treatment ([2]; 1 μM)	expression level of COL2A1 protein (immunohistochemical staining) vs PBS treatment group [4]	general observation score [5, 7]	histopathological scores of articular cartilage [5, 7]	general observation score [5, 8]	histopathological scores of articular cartilage [5, 8]	general observation score [5, 9]	histopathological scores of articular cartilage [5, 9]	proliferation of chondrocytes compared with the PBS group [6]
2.05 ± 0.633 h	CC[C@H](C)[C@H](NC(=O)[C@H](CCCNC(=N)N)NC(=O)[C@H](Cc1c[nH]cn1)NC(=O)[C@H](CCCCNC(=N)N)NC(=O)[C@H](CC(N)=O)NC(=O)[C@H](CCCNC(=N)N)NC(=O)[C@H](Cc1c[nH]cn1)NC(=O)[C@H](CCCCN)NC(=O)[C@H](CC(C)C)NC(=O)[C@H](N)CCC(N)=O)C(=O)N[C@@H](CCCCN)C(=O)N[C@H](C(=O)NCC(=O)N[C@@H](CO)C(=O)N[C@H](C(=O)N[C@@H](CC(N)=O)C(=O)N[C@@H](Cc1c[nH]cn1)C(=O)NCC(=O)N[C@@H](CC(C)C)C(=O)N[C@H](C(=O)N[C@@H](CCC(N)=O)C(=O)N[C@@H](CO)C(=O)N[C@@H](CC(C)C)C(N)=O)C(C)C)[C@@H](C)O)[C@@H](C)O [BM23 peptide] (HELM PEPTIDE1{[dQ].L.K.H.R.N.[N=C(N)NCCCC[C@H](N[*:1])C(=O)[*:2]].H.R.I.K.T.G.S.T.N.H.G.L.V.Q.S.L.[am]}$$$$V2.0; N-terminus assumed)	significantly increased	no significant effect	no significant effect	significantly different	significantly different	significantly increased	2.1 points	2.1 points	3.7 points	3.7 points	3.0 points	3.0 points	significantly promoted
–	positive control: human insulin growth factor (IGF-1), used at 1 μM as positive control	–	–	–	–	–	–	–	–	–	–	–	–	significantly promoted
